Calls of active or inactive are those of the source. The calls are words filed in the database; no cut-off is given here.
Legend:
Type in all cases: functional
Brugia malayi [1] = experiment: Antifilarial activity against Brugia malayi assessed as loss of motility at 20 ng/ml after 48 hrs by MTT assay
Brugia malayi [2] = experiment: Antifilarial activity against Brugia malayi assessed as loss of motility at 40 ng/ml after 48 hrs by MTT assay
Brugia malayi [3] = experiment: Antifilarial activity against Brugia malayi assessed as loss of motility at 60 ng/ml after 48 hrs by MTT assay
Brugia malayi [4] = experiment: Antifilarial activity against Brugia malayi assessed as loss of motility at 80 ng/ml after 48 hrs by MTT assay
Brugia malayi [5] = experiment: Antifilarial activity against Brugia malayi assessed as loss of motility at 100 ng/ml after 48 hrs by MTT assay

`O=C1C(Cl)C(c2ccc(Cl)cc2)N1c1ccc(O)c2ncccc12` (stereo not given) was tested, and the Activity (Brugia malayi [1]) was “inactive”, the Activity (Brugia malayi [2]) was 10% and the Activity (Brugia malayi [3]) was 19%. The Activity (Brugia malayi [4]) was 36% and the Activity (Brugia malayi [5]) was 59%.
With `O=C1C(Cl)C(c2ccc(F)cc2)N1c1ccc(O)c2ncccc12` (stereo not given) the Activity (Brugia malayi [1]) was “inactive”, the Activity (Brugia malayi [2]) was “inactive” and the Activity (Brugia malayi [3]) was 12%. For the same molecule, the Activity (Brugia malayi [4]) was 26% and the Activity (Brugia malayi [5]) was 37%.
`O=C1C(Cl)C(c2ccccc2)N1c1ccc(O)c2ncccc12` (stereo not given) was tested, and the Activity (Brugia malayi [1]) was “inactive”, the Activity (Brugia malayi [2]) was “inactive” and the Activity (Brugia malayi [3]) was “inactive”. It also gave an Activity (Brugia malayi [4]) of 2% and an Activity (Brugia malayi [5]) of 2%.
`COc1ccc(C2C(Cl)C(=O)N2c2ccc(O)c3ncccc23)cc1` (stereo not given) showed an Activity (Brugia malayi [1]) of 67%, an Activity (Brugia malayi [2]) of 76% and an Activity (Brugia malayi [3]) of 91%. The Activity (Brugia malayi [4]) was 91% and the Activity (Brugia malayi [5]) was 91%.
Work on `CC1C(Cl)C(=O)N1c1ccc(O)c2ncccc12` (stereo not given) yielded an Activity (Brugia malayi [1]) of 53%, an Activity (Brugia malayi [2]) of 61% and an Activity (Brugia malayi [3]) of 67%. For the same molecule, the Activity (Brugia malayi [4]) was 76% and the Activity (Brugia malayi [5]) was 81%.
`O=C1C(Cl)C(c2ccc(Br)cc2)N1c1ccc(O)c2ncccc12` (stereo not given) was tested, and the Activity (Brugia malayi [1]) was “inactive”, the Activity (Brugia malayi [2]) was “inactive” and the Activity (Brugia malayi [3]) was 3%. It also gave an Activity (Brugia malayi [4]) of 16% and an Activity (Brugia malayi [5]) of 23%.

From ChEMBL document CHEMBL1158606, “Synthesis and molecular modeling studies of 3-chloro-4-substituted-1-(8-hydroxy-quinolin-5-yl)-azetidin-2-ones as novel anti-filarial agents” (2010)
